# From PubChem BioAssay AID1745844 (Carcinogenic Potency Database (CPDB), 2022)
# Activity calls are given as the source filed them. The rule behind the calls is not given here.
# System: rodent lifetime carcinogenesis bioassay, tumor incidence TD50
# Test: carcinogenic potency in animals, long-term in vivo studies, CPDB compilation (AID 1745844)
smiles,measurement,setting,value
C=C1C/C(=C/C)C(=O)O[C@@H]2CCN3CC=C(COC(=O)[C@@]1(O)CO)[C@H]23,TD50,"mouse, strain B6C3F1, females, by gavage, site: all sites, lesion: hemangioma + hemangiosarcoma, dosed 105 weeks, study length 105 weeks",10 mg/kg/day
same,TD50,"mouse, strain B6C3F1, females, by gavage, site: any site (literature study), lesion: several types, types named in the paper, dosed 105 weeks, study length 105 weeks",0.691 mg/kg/day
same,TD50,"mouse, strain B6C3F1, females, by gavage, site: lung, lesion: alveolar/bronchiolar adenoma + alveolar/bronchiolar carcinoma, dosed 105 weeks, study length 105 weeks",1.99 mg/kg/day
same,TD50,"mouse, strain B6C3F1, females, by gavage, site: lung, lesion: alveolar/bronchiolar adenoma, dosed 105 weeks, study length 105 weeks",2.68 mg/kg/day
same,TD50,"mouse, strain B6C3F1, males, by gavage, site: all sites, lesion: hemangiosarcoma, dosed 104 weeks, study length 104 weeks",1.63 mg/kg/day
same,TD50,"mouse, strain B6C3F1, males, by gavage, site: any site (literature study), lesion: several types, types named in the paper, dosed 104 weeks, study length 104 weeks",1.09 mg/kg/day
same,TD50,"mouse, strain B6C3F1, males, by gavage, site: liver, lesion: hemangiosarcoma, dosed 104 weeks, study length 104 weeks",1.96 mg/kg/day
same,TD50,"mouse, strain B6C3F1, males, by gavage, site: lung, lesion: alveolar/bronchiolar adenoma + alveolar/bronchiolar carcinoma, dosed 104 weeks, study length 104 weeks",5.57 mg/kg/day
same,TD50,"rat, strain Fischer 344, females, by gavage, site: all sites + liver, lesion: mononuclear-cell leukemia + hemangiosarcoma + hepatocellular adenoma, dosed 102 weeks, study length 104 weeks",0.143 mg/kg/day
same,TD50,"rat, strain Fischer 344, females, by gavage, site: all sites + liver, lesion: mononuclear-cell leukemia + hepatocellular adenoma, dosed 102 weeks, study length 104 weeks",0.234 mg/kg/day
same,TD50,"rat, strain Fischer 344, females, by gavage, site: all sites, lesion: hemangiosarcoma, dosed 102 weeks, study length 104 weeks",0.446 mg/kg/day
same,TD50,"rat, strain Fischer 344, females, by gavage, site: all sites, lesion: mononuclear-cell leukemia, dosed 102 weeks, study length 104 weeks",0.293 mg/kg/day
same,TD50,"rat, strain Fischer 344, females, by gavage, site: any site (literature study), lesion: several types, types named in the paper, dosed 102 weeks, study length 104 weeks",0.0706 mg/kg/day
same,TD50,"rat, strain Fischer 344, females, by gavage, site: liver, lesion: hemangiosarcoma, dosed 102 weeks, study length 104 weeks",0.457 mg/kg/day
same,TD50,"rat, strain Fischer 344, females, by gavage, site: liver, lesion: hepatocellular adenoma + hepatoblastoma + hepatocellular carcinoma, dosed 102 weeks, study length 104 weeks",1.2 mg/kg/day
same,TD50,"rat, strain Fischer 344, females, by gavage, site: liver, lesion: hepatocellular adenoma + hepatocellular carcinoma, dosed 102 weeks, study length 104 weeks",1.2 mg/kg/day
same,TD50,"rat, strain Fischer 344, females, by gavage, site: liver, lesion: hepatocellular adenoma, dosed 102 weeks, study length 104 weeks",1.63 mg/kg/day
same,TD50,"rat, strain Fischer 344, females, by gavage, site: thyroid gland, lesion: c-cell adenoma + c-cell adenoma, bilateral, dosed 102 weeks, study length 104 weeks",0.62 mg/kg/day
same,TD50,"rat, strain Fischer 344, males, by gavage, site: all sites + liver, lesion: mononuclear-cell leukemia + hemangiosarcoma + hepatocellular adenoma, dosed 71 weeks, study length 71 weeks",0.0665 mg/kg/day
same,TD50,"rat, strain Fischer 344, males, by gavage, site: all sites + liver, lesion: mononuclear-cell leukemia + hepatocellular adenoma, dosed 71 weeks, study length 71 weeks",0.179 mg/kg/day
same,TD50,"rat, strain Fischer 344, males, by gavage, site: all sites, lesion: mononuclear-cell leukemia, dosed 71 weeks, study length 71 weeks",0.232 mg/kg/day
same,TD50,"rat, strain Fischer 344, males, by gavage, site: any site (literature study), lesion: several types, types named in the paper, dosed 71 weeks, study length 71 weeks",0.0267 mg/kg/day
same,TD50,"rat, strain Fischer 344, males, by gavage, site: liver, lesion: hemangiosarcoma, dosed 71 weeks, study length 71 weeks",0.0744 mg/kg/day
same,TD50,"rat, strain Fischer 344, males, by gavage, site: liver, lesion: hepatocellular adenoma + hepatoblastoma + hepatocellular carcinoma, dosed 71 weeks, study length 71 weeks",0.584 mg/kg/day
same,TD50,"rat, strain Fischer 344, males, by gavage, site: liver, lesion: hepatocellular adenoma, dosed 71 weeks, study length 71 weeks",0.584 mg/kg/day
same,TD50,"rat, strain Fischer 344, males, by gavage, site: lung, lesion: alveolar/bronchiolar adenoma, dosed 71 weeks, study length 71 weeks",0.528 mg/kg/day
OB(O)O,carcinogen call,"mouse, strain B6C3F1, females, in feed, site: any site (literature study), lesion: several types, types named in the paper, dosed 103 weeks, study length 105 weeks",negative (inactive)
same,TD50,"mouse, strain B6C3F1, females, in feed, site: liver, lesion: hepatocellular adenoma + hepatocellular carcinoma + neoplastic nodule, dosed 103 weeks, study length 105 weeks",31000 mg/kg/day
same,TD50,"mouse, strain B6C3F1, females, in feed, site: lung, lesion: alveolar/bronchiolar adenoma + alveolar/bronchiolar carcinoma, dosed 103 weeks, study length 105 weeks",4190 mg/kg/day
same,TD50,"mouse, strain B6C3F1, males, in feed, site: any site (literature study), lesion: several types, types named in the paper, dosed 103 weeks, study length 105 weeks",500 mg/kg/day
same,TD50,"mouse, strain B6C3F1, males, in feed, site: liver, lesion: hepatocellular adenoma + hepatocellular carcinoma + neoplastic nodule, dosed 103 weeks, study length 105 weeks",638 mg/kg/day
same,TD50,"mouse, strain B6C3F1, males, in feed, site: liver, lesion: hepatocellular adenoma + hepatocellular carcinoma, dosed 103 weeks, study length 105 weeks",638 mg/kg/day (inactive)
same,TD50,"mouse, strain B6C3F1, males, in feed, site: liver, lesion: hepatocellular carcinoma, dosed 103 weeks, study length 105 weeks",1120 mg/kg/day
same,TD50,"mouse, strain B6C3F1, males, in feed, site: lung, lesion: alveolar/bronchiolar adenoma + alveolar/bronchiolar carcinoma, dosed 103 weeks, study length 105 weeks",38600 mg/kg/day
same,TD50,"mouse, strain B6C3F1, males, in feed, site: subcutaneous tissue, lesion: fibrosarcoma + fibroma + neurofibrosarcoma + sarcoma, NOS, dosed 103 weeks, study length 105 weeks",706 mg/kg/day
same,TD50,"mouse, strain B6C3F1, males, in feed, site: subcutaneous tissue, lesion: fibrosarcoma + neurofibrosarcoma + sarcoma, NOS, dosed 103 weeks, study length 105 weeks",1070 mg/kg/day
